The values that follow come from patent US6800637B2, “Antidepressant indolealkyl derivatives of heterocycle-fused benzodioxan methylamines” (Wyeth, priority 2002, dated 2004).

The structures appear in SMILES notation. Structures can show the parent of a compound that is named as a salt.

The target in one series is T1, serotonin transporter (Rattus norvegicus, UniProt P31652).
T1 construct: displace ^3H-paroxetine from male rat frontal cortical membranes; from tissue; host or cells: male rat frontal cortex membranes
T1 sequence (P31652 whole entry): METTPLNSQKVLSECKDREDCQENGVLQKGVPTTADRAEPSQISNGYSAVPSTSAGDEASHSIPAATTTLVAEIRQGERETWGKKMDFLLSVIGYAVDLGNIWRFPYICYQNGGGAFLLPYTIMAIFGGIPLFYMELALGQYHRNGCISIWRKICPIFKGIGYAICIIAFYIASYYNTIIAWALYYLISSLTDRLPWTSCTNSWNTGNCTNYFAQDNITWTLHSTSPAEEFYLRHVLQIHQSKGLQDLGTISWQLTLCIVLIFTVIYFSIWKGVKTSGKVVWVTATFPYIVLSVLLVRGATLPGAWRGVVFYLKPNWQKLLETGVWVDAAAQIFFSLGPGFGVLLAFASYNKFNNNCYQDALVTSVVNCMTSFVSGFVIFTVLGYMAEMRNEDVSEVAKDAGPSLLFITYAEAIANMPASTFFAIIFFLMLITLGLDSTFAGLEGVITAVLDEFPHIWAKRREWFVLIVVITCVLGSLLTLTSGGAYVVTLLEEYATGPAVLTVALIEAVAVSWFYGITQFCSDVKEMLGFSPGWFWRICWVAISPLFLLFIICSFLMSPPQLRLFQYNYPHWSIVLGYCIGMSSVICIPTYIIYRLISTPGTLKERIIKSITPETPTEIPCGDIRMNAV
The series is described as follows: Displacement of 3H-paroxetine from male rat frontal cortical membranes (serotonin transporter affinity). It is filed as binding. The conditions noted are these: read-out: 5-HT Transporter Affinity KI.

In a further series the target is T2, human 5-HT1A receptors (Homo sapiens, UniProt P08908).
T2 construct: expressed in transfected cells; host or cells: CHO cells
T2 sequence (P08908 1-422): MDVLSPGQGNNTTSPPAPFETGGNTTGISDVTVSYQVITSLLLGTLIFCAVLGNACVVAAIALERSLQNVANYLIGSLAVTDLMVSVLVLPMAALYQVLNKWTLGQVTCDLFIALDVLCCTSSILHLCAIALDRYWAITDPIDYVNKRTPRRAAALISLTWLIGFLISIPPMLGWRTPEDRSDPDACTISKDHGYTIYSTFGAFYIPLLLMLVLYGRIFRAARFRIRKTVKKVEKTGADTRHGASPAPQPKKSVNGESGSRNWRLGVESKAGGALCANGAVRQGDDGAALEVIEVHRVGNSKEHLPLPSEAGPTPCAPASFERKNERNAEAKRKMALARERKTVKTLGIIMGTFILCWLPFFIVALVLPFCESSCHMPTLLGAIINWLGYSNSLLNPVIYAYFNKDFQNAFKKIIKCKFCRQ
Kind of series: Displacement of [3H] 8-OHDPAT from 5-HT1A receptor, CHO cells stably transfected with human 5-HT1A receptors. The conditions noted are these: CHO cells with human 5-HT1A receptors, read-out: 5-HT1A Receptor Affinity KI. In kind it is binding. The text has this: High affinity for the serotonin 5-HT1A receptor was established by testing the claimed compound's ability to displace [^3H] 8-OHDPAT (dipropylaminotetralin) from the 5-HT1A serotonin receptor following a modification of the procedure of Hall et al., J. Neurochem. 44, 1685 (1985) which utilizes CHO cells stably transfected with human 5-HT1A receptors.

The target in series [1] is T3, cloned human 5HT1A receptors (Homo sapiens, UniProt P08908).
T3 construct: expressed in transfected cells
T3 sequence (P08908 1-422): T2 sequence (P08908 1-422)
The series is described as follows: 35S-GTPγS binding assay, membranes containing cloned human 5HT1A receptors. Particulars: for IC50: antagonist potency, reversal of the effects of the standard agonist 8-OHDPAT, read-out: 5-HT1A Function IC50; for Emax: maximum inhibitory effect, read-out: 5-HT1A Function (Imax). In kind it is biochemical. Here is the method:
Antagonist activity at 5-HT1A receptors was established by using a ^35S-GTPγS binding assay similar to that used by Lazareno and Birdsall (Br. J. Pharmacol. 109: 1120, 1993), in which the test compound's ability to affect the binding of ^35S-GTPγS to membranes containing cloned human 5HT1A receptors was determined. Agonists produce an increase in binding whereas antagonists produce no increase but rather reverse the effects of the standard agonist 8-OHDPAT. The test compound's maximum inhibitory effect is represented as the Imax, while its potency is defined by the IC50.

Molecule `Cc1ccc2c3c(ccc2n1)OC[C@H](CNCCCc1c[nH]c2ccc(F)cc12)O3` (as salt: fumarate) [Example 3, N-[3-(5-Fluoro-1H-Indolyl-3-yl)propyl]-N-(8-methyl-2,3-dihydro-[1,4]dioxino[2,3-f]quinolin-2-ylmethyl)amine] registered a melting point of 207 to 209 °C.
Regarding `Cc1ccc2c3c(ccc2n1)OCC(CNCCCc1c[nH]c2ccccc12)O3` (stereo not drawn) (as salt: fumarate) [Example 6, N-[3-(1H-Indol-3-yl)propyl]-N-(8-methyl-2,3-dihydro-[1,4]dioxino[2,3-f]quinolin-2-ylmethyl)amine], the melting point was 202 to 203 °C.
In turn, `Cc1ccc2c3c(ccc2n1)OCC(CN(C)CCCc1c[nH]c2ccc(F)cc12)O3` (stereo not drawn) (as salt: fumarate) [Example 7, N-[3-(5-Fluoro-1H-indol-3-yl)propyl]-N-methyl-N-(8-methyl-2,3-dihydro-[1,4]dioxino[2,3-f]quinolin-2-ylmethyl)amine] displayed a melting point of 104 to 120 °C.
For `Cc1ccc2c3c(ccc2n1)OCC(CNCCCc1c[nH]c2c(F)cccc12)O3` (stereo not drawn) (as salt: fumarate) [Example 8, N-[3-(7-Fluoro-1H-indol-3-yl)propyl]-N-(8-methyl-2,3-dihydro-[1,4]dioxino[2,3-f]quinolin-2-ylmethyl)amine], the melting point lay within 142 to 150 °C.
The molecule `Cc1ccc2c3c(ccc2n1)OCC(CNCCCCc1c[nH]c2ccccc12)O3` (stereo not drawn) (as salt: fumarate) [Example 9, N-[4-(1H-indol-3-yl)butyl]-N-(8-methyl-2,3-dihydro-[1,4]dioxino[2,3-f]quinolin-2-ylmethyl)amine] registered a melting point of 208 to 210 °C.
For `Cc1ccc2c3c(ccc2n1)OCC(CNCCCCc1c[nH]c2ccc(F)cc12)O3` (stereo not drawn) (as salt: fumarate) [Example 10, N-[4-(5-Fluoro-1H-indol-3-yl)butyl]-N-(8-methyl-2,3-dihydro-[1,4]dioxino[2,3-f]quinolin-2-ylmethyl)amine], the melting point is 138 to 154 °C.
In turn, `Cc1ccc2c3c(ccc2n1)OCC(CNCCCc1cn(C)c2ccc(F)cc12)O3` (stereo not drawn) (as salt: fumarate) [Example 12, N-[3-(5-Fluoro-1-methyl-1H-indol-3-yl)propyl]-N-(8-methyl-2,3-dihydro-[1,4]dioxino[2,3-f]quinolin-2-ylmethyl)amine] displayed a melting point of 156 to 161 °C.
Same read-out and setting: then `Cc1ccc2c3c(ccc2n1)OCC(CNCCCc1c[nH]c2c(F)cc(F)cc12)O3` (stereo not drawn) (as salt: fumarate) [Example 13, N-[3-(5,7-Difluoro-1H-indol-3-yl)propyl]-N-(8-methyl-2,3-dihydro-[1,4]dioxino[2,3-f]quinolin-2-ylmethyl)amine], with 188 to 195 °C.
Same read-out and setting: the figure for `Cc1ccc2c3c(ccc2n1)OC[C@H](CNCCc1coc2ccccc12)O3` (as salt: fumarate) [Example 17] is 210 to 214 °C; for `Cc1ccc2c3c(ccc2n1)OC[C@H](CNCCCc1coc2ccccc12)O3` (as salt: fumarate) [Example 18] it is 165 to 170 °C; for `COc1cccc2c(CCCNCC3COc4ccc5nc(C)ccc5c4O3)coc12` (stereo not drawn) (as salt: fumarate) [Example 19, N-[3-(7-Methoxy-1-benzofuran-3-yl)propyl]-N-(8-methyl-2,3-dihydro-[1,4]dioxino[2,3-f]quinolin-2-ylmethyl)amine] it is 155 to 160 °C.
Same read-out and setting: then `Cc1ccc2c3c(ccc2n1)OC[C@H](CNCCCc1csc2ccccc12)O3` (as salt: fumarate) [Example 20], with 185 to 186 °C; and `Cc1ccc2c3c(ccc2n1)OCC(CNCCc1csc2ccccc12)O3` (stereo not drawn) (as salt: fumarate) [Example 21, N-[2-(1-Benzothien-3-yl)ethyl]-N-(8-methyl-2,3-dihydro-[1,4]dioxino[2,3-f]quinolin-2-ylmethyl)amine], with 124 to 127 °C.
Turning to `Cc1ccc2c3c(ccc2n1)OC[C@H](CN(C)CCCc1csc2ccccc12)O3` (as salt: fumarate) [Example 22, N-[3-(1-Benzothien-3-yl)propyl]-N-methyl-N-(8-mthyl-2,3-dihydro-[1,4]dioxino[2,3-f]quinolin-2-ylmthyl)amin], the melting point fell in the range of 123 to 127 °C.
Molecule `Cc1ccc2c3c(ccc2n1)OCC(CNCCCCc1coc2ccccc12)O3` (stereo not drawn) (as salt: fumarate) [Example 28, N-[4-(1-Benzofuran-3-yl)butyl]-N-(8-methyl-2,3-dihydro-[1,4]dioxino[2,3-f]quinolin-2-ylmethyl)amine] showed a melting point of 127 to 130 °C.
The molecule `Cc1ccc2c3c(ccc2n1)OC[C@H](CNCCCCc1csc2ccc(Cl)cc12)O3` (as salt: fumarate) [Example 49] yielded a melting point of 140 to 144 °C.
Consider `Cc1ccc2c3c(ccc2n1)OC[C@H](CNCCCc1csc2ccc(Cl)cc12)O3` (as salt: fumarate) [Example 50], for which the melting point was in the range of 193 to 196 °C.
For the molecule `Cc1ccc2c3c(ccc2n1)OC[C@H](CNCCCc1csc2ccc(F)cc12)O3` (as salt: fumarate) [Example 51, N-[3-(5-Fluoro-1-benzothien-3-yl)propyl]-N-{[(2S)-8-methyl-2,3-dihydro[1,4]dioxino[2,3-f]quinolin-2-yl]methyl}amine], the melting point lay in the range of 117 to 120 °C.
Turning to `Cc1ccc2c3c(ccc2n1)OCC(CN(C)CCCCc1c[nH]c2ccc(F)cc12)O3` (stereo not drawn) [Example 43, [4-(5-Fluoro-1H-indol-3-yl)-butyl]-methyl-(8-methyl-2,3-dihydro-[1,4]dioxino[2,3-f]quinolin-2-ylmethyl}-amine], the Ki at serotonin transporter came out at 0.5 nM. Further, at human 5-HT1A receptors, the inhibition constant (Ki) is 13.1 nM. In addition, in series [1], the IC50 is 344 nM and the Emax was 100%.
On to `Cc1ccc2c3c(ccc2n1)OCC(CN(C)CCCCc1cn(C)c2ccc(F)cc12)O3` (stereo not drawn) [Example 44, [4-(5-Fluoro-1-methyl-1H-indol-3-yl)-butyl]-methyl-(8-methyl-2,3-dihydro-[1,4]dioxino[2,3-f]quinolin-2-ylmethyl)-amine], for which, on serotonin transporter, the Ki came out at 3.4 nM. For the same molecule, at human 5-HT1A receptors, the Ki is 9.99 nM. Besides, in series [1], the half-inhibitory concentration (IC50) came to 372 nM and the Emax was 100%.
The like results for `CCCN(CCCc1c[nH]c2ccc(F)cc12)CC1COc2ccc3nc(C)ccc3c2O1` (stereo not drawn) [Example 45, [3-(5-Fluoro-1H-indol-3-yl)-propyl]-(8-methyl-2,3-dihydro-[1,4]dioxino[2,3-f]quinolin-2-ylmethyl)-propyl-amine] were, in that order, 1 nM, 108 nM, 1090 nM and 100%.
Turning to `Cc1ccc2c3c(ccc2n1)OCC(CNCCCn1ccc2c(F)cccc21)O3` (stereo not drawn) [Example 46, [3-(4-Fluoro-indol-1-yl)-propyl]-(8-methyl-2,3-dihydro-[1,4]dioxino[2,3-f]quinolin-2-ylmethyl)-amine], on serotonin transporter, the Ki is 6.7 nM. For the same molecule, the Ki at human 5-HT1A receptors was 0.05 nM. In series [1], the IC50 was 31.4 nM and the Emax was 85.6%.
For `Cc1ccc2c3c(ccc2n1)OCC(CN(C)CCCCn1ccc2ccc(F)cc21)O3` (stereo not drawn) [Example 47, [4-(6-Fluoro-indol-1-yl)-butyl]-methyl-(8-methyl-2,3-dihydro-[1,4]dioxino[2,3-f]quinolin-2-ylmethyl)-amine], the inhibitory constant (Ki) stood at 1 nM at serotonin transporter and 4.42 nM on human 5-HT1A receptors. In addition, the IC50 in series [1] stood at 191 nM. In addition, the Emax in series [1] is 75.2%.
Consider `Cc1ccc2c3c(ccc2n1)OC[C@H](CN(C)CCCn1ccc2c(F)cccc21)O3` [Example 48], for which the inhibition constant Ki at serotonin transporter turned out to be 4.2 nM. The inhibitory constant (Ki) on human 5-HT1A receptors was 24.7 nM. In series [1], the 50% inhibitory concentration (IC50) worked out at 500 nM and the Emax came out at 100%.
The like results for `Cc1ccc2c3c(ccc2n1)OC[C@H](CNCCCCc1csc2ccc(Cl)cc12)O3` [Example 49] were, in that order, 23 nM, 0.73 nM, 99 nM and 33%.
Take `Cc1ccc2c3c(ccc2n1)OC[C@H](CNCCCc1csc2ccc(Cl)cc12)O3` [Example 50]: the inhibition constant Ki on serotonin transporter was 9.7 nM. The Ki on human 5-HT1A receptors is 0.45 nM. In addition, in series [1], the IC50 came to 69 nM and the Emax amounted to 50%.
`Cc1ccc2c3c(ccc2n1)OC[C@H](CNCCCc1csc2ccc(F)cc12)O3` [Example 51, N-[3-(5-Fluoro-1-benzothien-3-yl)propyl]-N-{[(2S)-8-methyl-2,3-dihydro[1,4]dioxino[2,3-f]quinolin-2-yl]methyl}amine]: the inhibition constant Ki at serotonin transporter turned out to be 2.35 nM. Also, the Ki at human 5-HT1A receptors was found to be 0.78 nM. In addition, in series [1], the half-maximal inhibitory concentration (IC50) stood at 19 nM and the Emax was 82%.
